Experimental data taken from patent US20250221966A1, “RXFP1 AGONISTS” (BRISTOL-MYERS SQUIBB COMPANY, priority 2021, published 2025).

Biological target: T1, human RXFP1 (Homo sapiens, UniProt Q9HBX9)
T1 construct: expressed in transfected cells
T1 sequence (Q9HBX9 1-757): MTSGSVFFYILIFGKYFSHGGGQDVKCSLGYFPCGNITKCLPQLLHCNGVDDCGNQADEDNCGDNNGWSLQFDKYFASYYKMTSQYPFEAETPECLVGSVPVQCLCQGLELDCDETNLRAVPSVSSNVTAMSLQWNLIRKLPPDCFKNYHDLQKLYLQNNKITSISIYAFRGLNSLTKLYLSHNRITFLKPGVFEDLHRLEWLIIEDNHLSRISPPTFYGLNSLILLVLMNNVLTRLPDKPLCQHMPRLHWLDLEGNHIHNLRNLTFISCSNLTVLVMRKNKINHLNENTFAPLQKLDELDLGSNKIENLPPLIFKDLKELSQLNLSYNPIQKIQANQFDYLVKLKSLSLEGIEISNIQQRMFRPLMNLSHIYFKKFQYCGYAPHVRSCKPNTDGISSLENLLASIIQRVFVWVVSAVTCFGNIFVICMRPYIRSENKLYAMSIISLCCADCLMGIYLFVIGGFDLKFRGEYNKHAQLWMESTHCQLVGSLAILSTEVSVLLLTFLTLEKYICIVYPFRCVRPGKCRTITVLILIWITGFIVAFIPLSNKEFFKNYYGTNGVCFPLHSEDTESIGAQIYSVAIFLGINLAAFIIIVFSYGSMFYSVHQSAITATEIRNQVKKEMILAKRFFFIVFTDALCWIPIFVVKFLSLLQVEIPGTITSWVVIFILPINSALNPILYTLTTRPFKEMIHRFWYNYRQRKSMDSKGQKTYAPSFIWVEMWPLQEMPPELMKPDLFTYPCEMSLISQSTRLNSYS
Assay: RXFP1 cAMP assay (hRXFP1 HEK293 cAMP assay, HTRF)
Format: cell-based
Conditions: HEK293 cells stably expressing human RXFP1, 30 min at room temperature, read-out: cAMP hRXFP1 HEK293 Assay EC50
Summary of the method: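 In a stable human RXFP1 HEK293 line, compounds acted for 30 min at RT in buffer with 0.5 mM IBMX. HTRF then quantified cellular cAMP.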

EC50 | Structure (SMILES)
300 nM | COc1ccc(-c2cc(C(=O)NCC(=O)O)ccc2F)cc1C(=O)N[C@@H]1C2CCC(C2=C(C)C)[C@@H]1C(=O)Nc1ccc(F)c(C(F)(F)F)c1 (some centres unmarked) [compound 193]
1670 nM | COc1ccc([C@@]2(O)CO[C@@H]3[C@@H](O)CO[C@@H]32)cc1C(=O)N[C@H]1[C@@H](C(=O)Nc2ccc(F)c(C(F)(F)F)c2)[C@H]2CC[C@@H]1/C2=C\C(F)(F)F [compound 713]
47 nM | COc1ccc(-c2cc(C(=O)OC(C)(C)C)ccc2F)cc1C(=O)N[C@@H]1C2CCC(/C2=C/C(F)(F)F)[C@@H]1C(=O)Nc1ccc(F)c(C(F)(F)F)c1 (some centres unmarked) [compound 294]
380 nM | COc1cc(F)c(F)cc1C(=O)N[C@@H]1C2CCC(/C2=C/c2cccc(OC(F)F)c2)[C@@H]1C(=O)Nc1ccc(F)c(C(F)(F)F)c1 (some centres unmarked) [compound 27]
11.6 nM | COc1ccc(C2=NOC(CCO)C2CCO)cc1C(=O)N[C@H]1[C@@H](C(=O)Nc2ccc(F)c(C(F)(F)F)c2)[C@H]2CC[C@@H]1/C2=C\C1CC1 (some centres unmarked) [compound 501]
1.3 nM | COc1ccc(C2=NOC3CC(C)(O)CC23)cc1C(=O)N[C@H]1[C@@H](C(=O)Nc2ccc(F)c(C(F)(F)F)c2)[C@H]2CC[C@@H]1/C2=C\C1CC1 (some centres unmarked) [compound 858]
36.6 nM | COCC1CC(c2ccc(OC)c(C(=O)N[C@H]3[C@@H](C(=O)Nc4ccc(F)c(C(F)(F)F)c4)[C@H]4CC[C@@H]3C4=CC3CC3)c2)=NO1 (some centres unmarked) [compound 551]
1380 nM | COc1ccc(-c2cc(C(=O)O)ccc2F)cc1C(=O)N[C@@H]1C2CCC(/C2=C/C2CC2)[C@@H]1C(=O)Nc1ccc(F)c(F)c1F (some centres unmarked) [compound 305]
3180 nM | COc1ccc(-c2cc(C(=O)O)ccc2F)cc1C(=O)N[C@@H]1C2CCC(/C2=C/C2CC2)[C@@H]1C(=O)NCc1cccc(C(F)(F)F)c1 (some centres unmarked) [compound 264]
205 nM | COC(=O)c1c[nH]c2cc(-c3ccc(OC)c(C(=O)N[C@@H]4C5CCC(/C5=C/C(F)(F)F)[C@@H]4C(=O)Nc4ccc(F)c(C(F)(F)F)c4)c3)ccc12 (some centres unmarked) [compound 296]
400 nM | COc1cc(F)c(F)cc1C(=O)N[C@@H]1C2CCC(/C2=C/c2cccc(OCC(F)(F)F)c2)[C@@H]1C(=O)Nc1ccc(F)c(C(F)(F)F)c1 (some centres unmarked) [compound 28]
1330 nM | COc1ccc(C2=NOC3COCC23)cc1C(=O)N[C@H]1[C@@H](C(=O)NCc2ccnn2C)[C@H]2CC[C@@H]1/C2=C\C1CC1 (some centres unmarked) [compound 707]
55 nM | COc1ccc(C2=NOC(C)(C(=O)O)C2)cc1C(=O)N[C@@H]1C2CCC(/C2=C/C2CC2)[C@@H]1C(=O)Nc1ccc(F)c(C(F)(F)F)c1 (some centres unmarked) [compound 422]
37 nM | COc1ccc(C2=NOC(CC(=O)O)C2)cc1C(=O)N[C@@H]1C2CCC(/C2=C/C2CC2)[C@@H]1C(=O)Nc1ccc(F)c(C(F)(F)F)c1 (single isomer, unassigned) [Example 390]
12.9 nM | COc1ccc(C2=NOC3COCC23)cc1C(=O)N[C@H]1[C@@H](C(=O)N[C@H](C)C2CCC2)[C@H]2CC[C@@H]1/C2=C\C1CC1 (some centres unmarked) [compound 507]
3.2 nM | COc1ccc(C2=NOC3CC(C(C)(C)O)CC23)cc1C(=O)N[C@H]1[C@@H](C(=O)Nc2ccc(F)c(C(F)(F)F)c2)[C@H]2CC[C@@H]1/C2=C\C1CC1 (single isomer, unassigned) [compound 464]
71 nM | COc1ccc(C2=NOC(C(=O)OC(C)(C)C)C2)cc1C(=O)N[C@@H]1C2CCC(/C2=C/C2CC2)[C@@H]1C(=O)Nc1ccc(F)c(C(F)(F)F)c1 (some centres unmarked) [compound 386]
3.1 nM | COc1cc(F)c(C2=NOC3COCC23)cc1C(=O)N[C@H]1[C@@H](C(=O)Nc2ccc(F)c(C(F)(F)F)c2)[C@H]2CC[C@@H]1/C2=C\C1CC1 (single isomer, unassigned) [compound 463]
854 nM | COc1ccc(-c2cc(C(=O)O)ccc2F)cc1C(=O)N[C@@H]1C2CCC(/C2=C/C(=O)N(C)C)[C@@H]1C(=O)Nc1ccc(F)c(C(F)(F)F)c1 (some centres unmarked) [Example 323]
110 nM | COc1ccc(-c2ccc(C(=O)O)cc2F)cc1C(=O)N[C@H]1[C@@H](C(=O)Nc2ccc(F)c(C(F)(F)F)c2)[C@H]2CC[C@@H]1C2=C(C)C [compound 84]
